Measurements as given in PubChem BioAssay AID743502 (Broad Institute, 2014).
Active and inactive are the calls of the source.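 Rule for the calls: active = IC50 under 35 µM against the melanocortin-4 receptor MC4R counterscreen signal; inactive = IC50 above 35 µM.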

tested on: HEK293 transfected MC4R, CRE-luciferase, beta-gal normalized; experiment: inhibition of alpha-MSH-driven MC4R cAMP reporter – cell-based, HEK293, beta-gal normalized, luminescence, dry powder, counter-screen for LGR2 antagonist project, dose response (AID 743502)

Compound	IC50
C[C@H](CO)N1C[C@H](C)[C@H](CN(C)C(=O)Nc2ccc(F)cc2)OCCCC[C@H](C)Oc2ccc(NC(=O)C3CCCCCC3)cc2C1=O	> 35 µM (inactive)
C[C@H](CO)N1C[C@H](C)[C@H](CN(C)C(=O)Nc2ccc(F)cc2)OCCCC[C@H](C)Oc2ccc(NC(=O)C3CCCC3)cc2C1=O	> 35 µM (inactive)
Cc1ccc(NC(=O)N(C)C[C@@H]2OCCCC[C@H](C)Oc3ccc(NC(=O)C4CCCCC4)cc3C(=O)N([C@H](C)CO)C[C@@H]2C)cc1	> 35 µM (inactive)
C[C@@H]1CN([C@@H](C)CO)C(=O)c2cc(NC(=O)C3CCCCC3)ccc2O[C@@H](C)CCCCO[C@H]1CN(C)C(=O)Nc1cccc2ccccc12	> 35 µM (inactive)
C[C@H](CO)N1C[C@H](C)[C@H](CN(C)C(=O)Nc2ccccc2F)OCCCC[C@H](C)Oc2ccc(NC(=O)C3CCCCC3)cc2C1=O	> 35 µM (inactive)
C[C@H](CO)N1C[C@H](C)[C@H](CN(C)C(=O)Nc2ccc3ccccc3c2)OCCCC[C@H](C)Oc2ccc(NC(=O)C3CCCCC3)cc2C1=O	> 35 µM (inactive)
C[C@H](CO)N1C[C@H](C)[C@H](CN(C)C(=O)Nc2cccc3ccccc23)OCCCC[C@H](C)Oc2ccc(NC(=O)C3CCCCC3)cc2C1=O	> 35 µM (inactive)
C[C@H]1CCCCO[C@@H](CN(C)C(=O)Nc2cccc3ccccc23)[C@@H](C)CN([C@@H](C)CO)C(=O)c2cc(NC(=O)C3CCCCC3)ccc2O1	> 35 µM (inactive)
C[C@H](CO)N1C[C@H](C)[C@H](CN(C)C(=O)Nc2cccc(F)c2)OCCCC[C@H](C)Oc2ccc(NC(=O)C3CCCCC3)cc2C1=O	> 35 µM (inactive)
C[C@H](CO)N1C[C@H](C)[C@H](CN(C)C(=O)Nc2ccc(Cl)cc2)OCCCC[C@H](C)Oc2ccc(NC(=O)C3CCCCC3)cc2C1=O	> 35 µM (inactive)
